Results: article PMC7719179, “Small molecule inhibition of Dynamin-dependent endocytosis targets multiple niche signals and impairs leukemia stem cells” (Nature Communications, 2020)
“And” between values parts separate entries of the source, which are not always exact repeats. Identical values can stand only once.

What was measured:
[1] = system: pre-LSC self-renewal; assay: Serial transplantation assay of thymocytes from treated Lmo2^Tg mice; assay type: in vivo, mouse
Description: For primary transplantation, single-cell suspension of 2 × 10^6 thymocytes were intravenously injected into sublethally irradiated (650 Rads) isogenic Ly5.1 (Cd45.1) mice. Analysis was performed 4 weeks after transplantation and 5 × 10^6 thymocytes harvested from recipients were subsequently injected into sublethally irradiated (650 Rads) Ly5.1 (Cd45.1) recipients for the secondary and tertiary transplantations, as previously described.
Supplementary Figure 3. In vivo effect of Dynole 34-2. a, Treatment schematic and pharmacokinetic analysis of serum levels (µ M) of Dynole 34-2 at different time points (15, 30, 60, 120 and 240 minutes) following a single intraperitoneal injection (grey arrow) in 5 recipients (A, B, C, D, E). Average maximum concentration (Cmax), the time taken to reach this maximum concentration (Tmax), and the half-life (T 1/2) of Dynole 34-2 in the serum of treated mice are indicated.
Average concentration for each time point is indicated (bar). b , Treatment schematic and fold expansion of donor-derived L mo2-transgenic DN3a thymocytes enumerated in the thymus of primary (I), secondary (II) and tertiary (III) recipients, assessed four weeks after transplantation of cells harvested from 5 independent mice per cohort of donors. Number of recipients engrafted for each condition is indicated. Mean ± SD (N = number of independent mice analysed), Student’s t-test;

[2] = system: IL-7R at the surface of Ba/F3-IL7R cells; assay: Surface expression of IL-7R on Ba/F3-IL7R cells (flow cytometry); assay type: cell-based, murine; settings: replicates
Description: Ba/F3 cells (kindly provided by a person from The Walter and Eliza Hall Institute of Medical Research) were infected with pMIG-R1/Il7r retroviral supernatants produced in 293T cells, and transduced cells were sorted with a BD Influx (BD Australia) and selected by culture in medium supplemented with 5 ng/mL rmIL-7 (#217-17, Pepro Tech, Rocky Hill NJ, USA) for 7 days. Ba/F3 cells stably expressing Il7r (Ba/F3-IL7R) were infected with TxTCPVIR-Stat5-CA retroviral supernatants produced in 293T. Cell sorting was performed with a BD Influx and transduced cells were treated with doxycycline for 48 h to induce the expression of the Stat5-CA-T2A-mCherry fusion protein.
Flow cytometry analyses were performed as previously described[10],[86] on single-cell suspensions stained using BD Pharmingen antibodies (BD Australia, North Ryde NSW, Australia) against mouse CD4 (RM4-5), CD8 (53-6.7), CD25 (PC61.5), CD44 (IM7), CD45.1 (A20), CD45.2 (104), Thy1.2 (53-2.1; #561616), TCRβ (H57-597), CD117 (ACK45), CD135 (A2F10.1), CD150 (TC15-12F12.2; #562373), B220 (RA3-6B2; #563708), CD3 (145-2C11; #563004), CD19 (ID3; #557655), Gr-1 (RB6-8C5; #563299 and #565033), CD11b (M1/70; #563015 and #560455), Ter119 (Ter119; #565523 and #557909), Sca-1 (D7; #558160) and an eBioscience antibody (eBioscience, Invitrogen) against mouse NOTCH1 (22E5). DN3 populations and IL-7R were stained using BioLegend antibodies (Australian Biosearch, Balcatta WA, Australia) against mouse CD28 (E18) and CD127 (A7R34), respectively. Apoptosis was measured using an antibody against AnnexinV (#556420, BD Australia) and the […] Sytox Blue (BD Australia) following the manufacturer’s protocol.
For in vitro IL-7 stimulation assays, cells were starved in serum-free DMEM at 37 °C, then incubated with either vehicle or Dynole 34-2 or Ruxolitinib (INCB018424; #S1378, Selleckchem), or DAPT (GSI-IX; #S2215, Selleckchem) resuspended in DMSO for 1 h. Thymocytes were subsequently stimulated with 25 ng/mL IL-7 at 37 °C for 20 min and washed twice using cold PBS 1×. Cells were incubated with 25 ng/mL Rat IgG (Sigma-Aldrich Pty Ltd, Castle Hill NSW, Australia) and with a PE-conjugated antibody for detection of IL-7R (CD127) for 1 h on ice, as described in the FACS analysis section. PE-conjugated isotype was used as negative control. Cells were washed twice, fixed and phosphoflow analysis performed as described in the FACS analysis section. The analysis was performed in triplicate and the mean fluorescence intensity (MFI) observed without stimulation was reported as 100%.

[3] = system: HES1 in patient-derived ETP-ALL and T-ALL cells; assay: NOTCH1-induced HES1 in human ETP-ALL and T-ALL xenograft cells; assay type: cell-based; settings: for HES1 relative expression, FOLD: fold over unstimulated
Description: Splenocytes from secondary xenografts were processed as previously described. […] Flow cytometric analysis of surface IL-7R levels and intracellular levels of pSTAT5 were performed as described in the FACS analysis section. For activation of NOTCH1-mediated signalling, 5 × 10^5 rested leukemia cells were seeded on OP9-DL1 stromal cells. Co-culture on OP9 stromal cells was used as a negative control. After 16 h of co-culture, leukemia cells were washed twice using cold PBS 1×. Flow cytometric analysis of NOTCH1 expression and intracellular levels of HES1 were performed as described in the FACS analysis section.

CCCCCCCCNC(=O)C(C#N)=Cc1cn(CCCN(C)C)c2ccccc12 [Dynole 34-2, 2-Cyano-N-octyl-3-(1-(3-dimethylaminopropyl)-1H-indol-3-yl)-acrylamide]
repopulating activity in serial transplantation ([1]; tertiary recipients, result in words): complete loss of repopulating activity
Fold expansion DN3a cells ([1]; transplant III): 0.1 fold and 0.11 fold
IL-7R (MFI) ([2]; +IL-7, Dynole 34-2 0.2 µM): 6459 MFI and 6071 MFI and 5354 MFI and 5835 MFI and 6042 MFI and 5962 MFI
IL-7R (MFI) ([2]; +IL-7, Dynole 34-2 1.0 µM): 6945 MFI and 7094 MFI and 7005 MFI and 6255 MFI and 6778 MFI and 5501 MFI
IL-7R (MFI) ([2]; +IL-7, Dynole 34-2 5.0 µM): 8484 MFI and 8092 MFI and 6662 MFI and 7158 MFI and 8274 MFI and 7535 MFI
IL-7R (MFI) ([2]; +IL-7, Dynole 34-2 10.0 µM): 7753 MFI and 8175 MFI and 8231 MFI and 7570 MFI
IL-7R (MFI) ([2]; +IL-7, Dynole 34-2 25.0 µM): 9215 MFI and 8603 MFI and 7481 MFI and 8221 MFI and 8215 MFI and 7582 MFI
HES1 relative expression, MFI ([3]; ALL8): 4877 MFI and 4405 MFI
HES1 relative expression, FOLD ([3]; ALL8): 0.60 FOLD and 0.67 FOLD
HES1 relative expression, MFI ([3]; ALL16): 5772 MFI and 5666 MFI
HES1 relative expression, FOLD ([3]; ALL16): 0.83 FOLD and 0.85 FOLD
HES1 relative expression, MFI ([3]; ALL29): 5243 MFI and 5145 MFI
HES1 relative expression, FOLD ([3]; ALL29): 0.70 FOLD and 0.71 FOLD
HES1 relative expression, MFI ([3]; ALL31): 5977 MFI and 5691 MFI
HES1 relative expression, FOLD ([3]; ALL31): 0.71 FOLD and 0.74 FOLD
HES1 relative expression, MFI ([3]; ALL33): 6590 MFI and 6678 MFI
HES1 relative expression, FOLD ([3]; ALL33): 0.90 FOLD and 0.89 FOLD
HES1 relative expression, MFI ([3]; ETP1): 6721 MFI and 6600 MFI
HES1 relative expression, FOLD ([3]; ETP1): 0.88 FOLD and 0.90 FOLD
HES1 relative expression, MFI ([3]; ETP5): 7460 MFI and 7513 MFI
HES1 relative expression, FOLD ([3]; ETP5): 0.72 FOLD
HES1 relative expression, MFI ([3]; ETP8): 6107 MFI and 5672 MFI
HES1 relative expression, FOLD ([3]; ETP8): 0.72 FOLD and 0.78 FOLD
HES1 relative expression, MFI ([3]; ETP12): 6018 MFI and 5803 MFI
HES1 relative expression, FOLD ([3]; ETP12): 0.87 FOLD and 0.89 FOLD
HES1 relative expression, MFI ([3]; ETP13): 4629 MFI and 4445 MFI
HES1 relative expression, FOLD ([3]; ETP13): 0.69 FOLD and 0.72 FOLD
HES1 relative expression, MFI ([3]; ETP14): 4477 MFI and 4496 MFI
HES1 relative expression, FOLD ([3]; ETP14): 0.89 FOLD and 0.86 FOLD
HES1 protein levels ([3]; immature and mature subtypes of human T-ALL, result in words): significantly decreased
